Laboratory results from patent US4551460A, “Pyrido[2,1-b]quinazoline derivatives useful as agents for treatment of allergic conditions and vascular disorders involving thrombosis” (priority 1983, dated 1985).
Where a name gives a salt, the structure may show the parent alone. Read-outs that look alike come from different tables or passages of the source.

Legend:
[1] = tested on: arachidonic acid induced platelet aggregation; assay: Arachidonic acid induced platelet aggregation in vitro; assay type: cell-based; conditions: read-out: AA (IC50, arachidonic acid induced platelet aggregation)
Method: (§1) (1) Assay for Platelet Aggregation In Vitro
(§2) The turbidometric method of G. V. R. Born, Nature 194, 927 (1962) is used. Platelet rich plasma (PRP) and platelet poor plasma (PPP) are prepared with 0.38% sodium citrate-treated blood. Speed and time of centrifugation varied with different species; human:160 g for 20 minutes, dog:160 g for 15 minutes, guinea pig and rabbit:160 g for 15 minutes, and rat:230 g for 10 minutes. Aggregation is monitored with a Payton dual channel module or Chronolog lumiaggregometer when the release of ATP is simultaneously measured. 0.45 ml of PRP is added to a cuvette and prewarmed to 37° C. The stimulant (arachidonic acid or synthetic platelet activating factor) is added in volumes of 50 μl; all other agents in 5 μl. Vehicles are added to samples not containing agents. 0 to 100% light transmission is set with PRP and PPP. % aggregation is calculated from the % increase in light transmission at 5 minutes after the addition of the aggregating agent. For inhibition of aggregation studies the inhibitor is added first and preincubated with the platelets for 1 minute with stirring, followed by the stimulant. % inhibition is calculated from the % aggregation with and without the test compound. [formula]

[2] = tested on: platelet activating factor induced platelet aggregation; assay: Platelet activating factor induced platelet aggregation in vitro; assay type: cell-based; conditions: racemic platelet activating factor; read-out: PAF (IC50, platelet activating factor induced platelet aggregation)
Method: as §1, §2

[3] = tested on: leukotriene E (LTE) induced skin wheal formation in rat skin; assay: LTE-induced skin wheal formation in rat; assay type: in vivo; conditions: for ED50: rat skin wheal, read-out: ID50 (the source's name)
Method: (a) Methodology for LTE-induced Skin Wheal Formation in Rat. The ability of a drug to inhibit leukotriene E (LTE) induced skin wheal formation in rat skin is measured. In this model system a dose of LTE which gives a maximal wheal response, is injected (in 0.05 ml of saline) intradermally into anesthetized rats which have been pretreated for 30 minutes with 50 mg/kg of pyrilamine maleate and 4 mg/kg of methyl […] maleate (both administered intraperitoneally). The animal is then immediately treated with test drug (at 10 mg/kg, i.v.) followed by an intravenous injection of Evans blue (0.5%) into the tail vein of the animal. Thirty minutes later the animals are sacrificed and the increase in capillary permeability induced by LTE is reflected by the migration of dye into the injection point in the skin (the response being quantitated by the size, in mm, of the dye spot in the skin). The average response in 5 animals (4 intradermal injections of LTE per animal) treated with the test compound is compared with the response elicited in a similar group of animals which were not treated with the drug. For oral studies, the test animals are pretreated two hours prior to intradermal injection of LTE.

[4] = LD50 in mice (acute toxicity); conditions: mouse, in vivo, po, orally
[5] = tested on: leukotriene E induced bronchoconstriction; assay: LTE-induced bronchoconstriction in guinea pigs, in vivo (i.v. / oral); design: species or system guinea pig (Hartley strain); conditions: for ED50: read-out: ID50 (the source's name)
[6] = tested on: acetylcholine-induced constriction in guinea pig ilea; assay: Antagonism of acetylcholine-induced constriction in guinea pig ilea; conditions: 5.0×10^-7 M acetylcholine; read-out: IC50 antagonism of acetylcholine-induced constrictions
Method: (e) Antagonism of Acetylcholine-induced Constriction in Guinea Pig Ilea
Anticholinergic activity was determined on a segment of guinea pig ileum that was suspended in a 37° C. bath of oxygenated Tyrodes solution. At 4 minute intervals, the ileum was challenged with 5.0×10^-7 M acetylcholine for sufficient time to produce a peak contraction and then washed with fresh Tyrodes solution. After the tissue response to acetylcholine had stablized, the ileum was pretreated with the standard anticholinergic, atropine sulfate, for 1 minute prior to rechallenge with acetylcholine, the contraction recorded and the tissue washed with Tyrodes solution. […] The IC50 for atropine was 1×10^-8 M. THe IC50 's for test drugs were determined by this same procedure.

[7] = tested on: histamine-induced constriction in guinea pig ilea; assay: Antagonism of histamine-induced constriction in guinea pig ilea; conditions: 1×10^-7 M histamine
Method: (f) Antagonism of Histamine-induced Constriction in Guinea Pig Ilea
Antihistaminic activity was determined on a segment of guinea pig ileum that was suspended in a 37° C. bath of oxygenated Tyrodes solution. At 4 minute intervals, the ileum was challenged with 1×10^-7 M histamine for sufficient time to produce a peak contraction and then washed with fresh Tyrodes solution. After the tissue response to histamine had stabilized, the ileum was pretreated with the standard antihistaminic compound, pyrilamine maleate, for 1 minute prior to rechallenge with histamine, the contraction recorded, and the tissue washed with Tyrodes solution. […] By the IC50 for pyrilamine maleate in the test system was 1×10^-8 M. IC50 's for test drugs were determined by this same procedure.

[8] = tested on: leukotriene E induced bronchoconstriction; assay: Guinea pig bronchoconstriction, in vivo (aerosol); design: species or system guinea pig (Hartly strain); conditions: aerosol at concentration inhibiting bronchoconstriction by 80%
Method: (c) Guinea Pig Bronchoconstriction, In Vivo (Aerosol):
Male guinea pigs (Hartly strain) weighing 300 to 500 g are anesthetized with urethane (2 g/kg) intraperitoneally and a polyethylene cannula is inserted into the jugular vein for drug administration. Tracheal pressure is recorded from a cannula inserted in the trachea and connected to a Statham pressure transducer. After surgical preparation of the animals, a period of time is allowed for pulmonary functions to stabilize. The test compound is administered according to the following protocol. Propranolol (0.1 mg/kg) is administered intravenously while the animals breathed spontaneously. Five minutes thereafter, the animals are exposed for a five minute period to a 1% (w/v) aerosol solution of test compound (adjusted to an alkaline pH where necessary for drug solubilization) or to distilled water of the appropriate pH (for control purposes). A Monaghan (Model 750) ultrasonic nebulizer is used to administer all test compounds by inhalation. The nebulizer ultrasonic frequency is adjusted to produce particles in the 1-8μ diameter range (average 3μ). Aqueous solutions are prepared fresh and introduced into the chamber of the nebulizer. The output of the nebulizer is made available to the animal by directing a bias flow of aerosol through a y tube connected to the tracheal cannula. At the end of the exposure period, the animals are paralyzed with succinylcholine (1.2 mg/kg, i.v.) and mechanically respirated (Harvard rodent respirator) at 40 breaths/minute and 2.5 cc tidal volume. Animals are then challenged with a maximum constrictory dose of leukotriene E delivered intravenously 30 seconds after administration of the succinylcholine.
The change (cm H2 O) between pre and peak ventilatory pressure readings is averaged for three control animals and five drug treated animals. The percent inhibition is calculated from the following formula:
(Control-Drug Tested/Control)×100
When various drug concentrations are tested, the percent inhibition at each concentration is plotted as log concentration (abscissa) versus percent inhibition (ordinate) and the IC50 is determined from linear regression analysis.
In order to determine the aerosol half-life (t 1/2), the animals are prepared as described above, except that the time between aerosol exposure and challenge with leukotriene E is varied. All compounds are administered at the concentration necessary to inhibit leukotriene-induced bronchoconstriction by 80%. Biological half-life is calculated from plots of time (abscissa) versus log percent inhibition (ordinate).

[9] = tested on: SRS-A induced contraction of guinea pig ileum; assay: In vitro SRS-A antagonism; conditions: 30 seconds pretreatment
Method: (j) In vitro SRS-A Antagonism
SRS-A was determined by bioassay on the guinea pig ileum using a modification of the method described by Orange et al., Adv. Immunol., 1969, 10, 105. A 1.5 cm segment of the ileum, obtained from male guinea pigs (175-200 g), was suspended in an organ bath containing Tyrodes solution with 10^-6 M atropine sulfate and 10^-6 M pyrilamine maleate. The bath was maintained at 37° C. and gassed with a mixture of 95 percent oxygen and 5 percent carbon dioxide. The ileum was attached to a strain gauge transducer and isotonic contractions recorded by a strip chart recorder. A resting tension of 0.5 g was applied and the tissue allowed to equilibrate for 1 hour.
The SRS-A used in these studies was obtained by challenging a large quantity of chopped lung fragments from actively sensitized guinea pigs with egg albumin in vitro. The animals were sensitized to egg albumin by an intraperitoneal injection of the antigen (1 ml of 10 mg/ml) in saline 28 to 45 days prior to challenge. The in vitro challenge was carried out by first preincubating the lung tissue (40 mg/ml) at 37° C. in Tyrodes solution for 5 minutes, adding the egg albumin ([…] final concentration) to the fragments and after a 10 minute challenge, separating the media containing the SRS-A from the lung tissue by filtration on Whatman #1 filter paper. The concentration of SRS-A in the filtrate was calibrated by comparison of the contraction amplitude elicited in the bioassay system by a given volume of the supernatant with contractions obtained by varying concentrations of histamine. One unit of SRS-A is equivalent to that quantity which will give the same contraction as 5 ng of histamine. After standarization, the SRS-A was stored in small aliquots at -80° C. for further use. […] SRS-A antagonism was determined by pretreating the ileum with drug for 30 seconds prior to the addition of a concentration of SRS-A which have a submaximal response, determination of the amplitude of contraction elicited in the presence of drug and then washing the ileum with Tyrodes. […]

SMILES: CC(C)c1ccc2nc3ccc(C(=O)NCCSc4ccncc4)cn3c(=O)c2c1 [Example 12, N-[2-(4-Pyridylthio)ethyl]-2-(1-methylethyl)-11-oxo-11H-pyrido[2,1-b]quinazoline-8-carboxamide]
- IC50 [1]: < 10 µM
- IC50 [2]: < 10 µM

SMILES: CC(C)c1ccc2nc3ccc(C(=O)OCCCc4cccnc4)cn3c(=O)c2c1 [Example 1, 2-(1-methylethyl)-11-oxo-11H-pyrido[2,1-b]quinazoline-8-carboxylic acid 3-(3-pyridyl)propyl ester]
- IC50 [1]: > 10 µM
- IC50 [2]: < 10 µM

SMILES: Cc1ccc2nc3ccc(C(=O)NCCCCc4cccnc4)cn3c(=O)c2c1 [Example 17, 2-Methyl-N-[4-(3-pyridyl)butyl]-11-oxo-11H-pyrido[2,1-b]quinazoline-8-carboxamide]
- IC50 [1]: < 10 µM
- IC50 [2]: > 10 µM

SMILES: CC(C)c1ccc2nc3ccc(C(=O)NCCCCc4ccncc4)cn3c(=O)c2c1 [2-(1-methylethyl)-N-[4-(4-pyridyl)butyl]-11-oxo-11H-pyrido[2,1-b]quinazoline-8-carboxamide]
- ED50 ([3]; iv): 10 mg/kg
- ED50 ([3]; po): 90 mg/kg
- LD50 [4]: > 1000 mg/kg
- ED50 ([5]; Cavia porcellus, iv): 1.9 mg/kg
- ED50 ([5]; Cavia porcellus, po, orally (2 hours pretreatment)): 57 mg/kg
- IC50 [1]: > 10 µM
- IC50 [2]: < 10 µM

SMILES: CN1[C@@H]2CC[C@H]1CC(OC(=O)C(CO)c1ccccc1)C2 (stereo partly shown) [atropine, atropine sulfate, reference compound]
- IC50 [6]: 0.01 µM

SMILES: COc1ccc(CN(CCN(C)C)c2ccccn2)cc1 [pyrilamine maleate, reference compound]
- IC50 [7]: 0.01 µM

SMILES: O=C(NCCCCc1cccnc1)c1ccc2nc3ccc(O)cc3c(=O)n2c1 [Example 22, 2-Hydroxy-N-[4-(3-pyridyl)butyl]-11-oxo-11H-pyrido[2,1-b]quinazoline-8-carboxamide]
- IC50 [1]: < 10 µM
- IC50 [2]: < 10 µM

SMILES: CC(C)c1ccc2nc3ccc(C(=O)NCCCCCc4ccncc4)cn3c(=O)c2c1 [Example 11, N-[5-(4-Pyridyl)pentyl]-2-(1-methylethyl)-11-oxo-11H-pyrido[2,1-b]quinazoline-8-carboxamide]
- IC50 [1]: < 10 µM
- IC50 [2]: < 10 µM

SMILES: CCCc1c(OCC(O)COc2ccc3c(=O)cc(C(=O)O)oc3c2CCC)ccc(C(C)=O)c1O (stereo not shown) [FPL 55712, 7-[3-(4-Acetyl-3-hydroxy-2-propylphenoxy)-2-hydroxypropoxy]-4-oxo-8-propyl-4H-1-benzopyran-2-carboxylic acid, reference compound]
- inhibition at 10 mg/kg ([3]; Rattus norvegicus, iv, 10 mg/kg): 88%
- oral activity, LTE-induced skin wheal ([3]; orally): inactive orally
- inhibition at 10 mg/kg ([5]; Cavia porcellus, iv, 10 mg/kg): 98%
- oral activity, LTE-induced bronchoconstriction ([5]; orally): orally inactive
- Biological half-life [8]: 77 min
- IC50 [9]: 0.03 µM

SMILES: CC(C)NCC(O)c1ccc(O)c(O)c1 (stereo not shown) [Isoproterenol]
- Biological half-life [8]: 19.4 min

SMILES: CC(C)Oc1ccc2nc3ccc(C(=O)NCCCCc4cccnc4)cn3c(=O)c2c1 [Example 19, 2-(1-Methylethoxy)-N-[4-(3-pyridyl)butyl]-11-oxo-11H-pyrido[2,1-b]quinazoline-8-carboxamide]
- IC50 [1]: < 10 µM
- IC50 [2]: < 10 µM

SMILES: CC(C)c1ccc2nc3ccc(C(=O)NCCCCCn4ccnc4)cn3c(=O)c2c1 [Example 16, N-[5-(1H-Imidazol-1-yl)pentyl]-2-(1-methylethyl)-11-oxo-11H-pyrido[2,1-b]quinazoline-8-carboxamide]
- IC50 [1]: < 10 µM
- IC50 [2]: > 10 µM

SMILES: CCCCC[C@H](O)/C=C/[C@H]1[C@H](O)CC(=O)[C@@H]1C/C=C\CCCC(=O)O [PGE2]
- Biological half-life [8]: 2.1 min
